According to patent US20100022562A1, “Use of Plant Growth Regulators to Reduce Abscisic Acid Related Plant Leaf Yellowing” (priority 2008, published 2010):
Values belong to the molecule of their own block, whether it stands above or below them.

What was measured:
Pansy plants [1] = assay: Pansy shelf life under drought (daily wilting rating, sales index); type: in vivo
Protocol: (§1) All studies were conducted in the greenhouse at the research farm of Valent BioSciences Corporation (Long Grove, Ill.). Pansy plants were obtained either from local retailers as mature plants, or plugs from wholesale nurseries. Plugs of Pansy plants were transplanted into an 18-cell flat filled with Promix BX (available from Premier Horticulture Inc. Quakertown, Pa.) and grown for about 30 days prior to treatment. During growing periods, plants received daily irrigation and weekly fertilizer (1 g/L all purpose fertilizer 20-20-20, The Scotts Company, Marysville, Ohio).
(§2) Uniform plants were selected for the study. Prior to chemical treatment, plants were saturated with water and then drained for about two hours. A total of 20 mL chemical solution, which is equivalent to about 10% of the cell volume, was applied to each plant with 3 mL solution foliar applied to canopy and 17 mL solution drench applied to root zone. Unless specified, watering of plants was stopped after chemical treatment.
(§3) After chemical treatment, plants were arranged in a randomized complete block experimental design. The plants were rated daily for the extent of wilting on a scale from 1 (no wilting) to 4 (complete wilting) to generated a sales index rating. A rating of 2.5 was the point at which a plant was determined to be unmarketable and the previous day was recorded as the shelf life of that plant in days. Yellow leaf number was counted at 3 days after chemical treatment. Leaf transpiration rate was measured after treatment using a LI-1600 Steady State Porometer (LI-Cor, Lincoln, Nebr.). The transpiration rate of each treatment was calculated as the percentage of that of control at each day to reduce day-to-day variation caused by changes of environmental condition such as light intensity, humidity, and temperature.

Pansy plants [2] = assay: Pansy yellow leaf number (leaf yellowing); type: in vivo
Protocol: as §1, §2
as §3, with “Yellow leaf number was counted at 3 days after chemical treatment.” left out

[3] = 0.3 mg, Matrix Orange, drought, Table 2
[4] = 3 mg, Matrix Orange, drought, Table 2
[5] = 0.3 mg, Matrix Orange, drought, 3 d after treatment, Table 2
[6] = 3 mg, Matrix Orange, drought, 3 d after treatment, Table 2

Compound: COC(=O)C=C(C)C=CC1(O)C(C)=CC(=O)CC1(C)C1CC1 (centres unmarked) [PBI-696, 8′ cyclopropane ester]
- Shelf life (Pansy plants [1]; [3]): 5.3 days
- Shelf life (Pansy plants [1]; [4]): 7.8 days
- Yellow leaf number (Pansy plants [2]; [5]): 9.0

Compound: CCOC(=O)C1CC(=O)C(=C(O)C2CC2)C(=O)C1 (centres unmarked) [TE, trinexapac-ethyl]
- Shelf life (Pansy plants [1]; 30 mg, Matrix Yellow, drought, Table 10): 2.5 days
- Yellow leaf number (Pansy plants [2]; 30 mg, Matrix Yellow, drought, 3 d after treatment, Table 10): 8.7

Compound: O=C(Nc1ccccc1)Nc1ccnc(Cl)c1 [CPPU, N1-(2-chloro-4-pyridyl)-N3-phenylurea]
- Shelf life (Pansy plants [1]; 0.02 mg CPPU, Matrix Yellow, Table 6): 3.2 days
- Shelf life (Pansy plants [1]; 0.2 mg CPPU, Matrix Yellow, Table 6): 2.8 days
- Yellow leaf number (Pansy plants [2]; 0.02 mg CPPU, Matrix Yellow, 3 d after treatment, Table 6): 7.7
- Yellow leaf number (Pansy plants [2]; 0.2 mg CPPU, Matrix Yellow, 3 d after treatment, Table 6): 5.7

Compound: CC1=CC1 [MCP, 1-methylcyclopropene]
- Shelf life (Pansy plants [1]; 10 μL L^−1 MCP (12 hours) at 0 hrs, Delta Premium Pure White, Table 22): 4.0 days
- Shelf life (Pansy plants [1]; 10 μL L^−1 MCP (12 hours) at +24 hrs, Delta Premium Pure White, Table 22): 4.0 days
- Shelf life (Pansy plants [1]; 10 μL L^−1 MCP (12 hours) at −24 hrs, Delta Premium Pure White, Table 22): 4.0 days
- Shelf life (Pansy plants [1]; 10 μL L^−1 MCP for 12 hours, Colossus Formula Mix, no water, Table 20): 4.2 days
- Shelf life (Pansy plants [1]; 10 μL L^−1 MCP for 24 hours, Delta Premium Pure White, Table 21): 7.0 days
- Shelf life (Pansy plants [1]; 10 μL L^−1 MCP, Delta Premium Pure White, Table 23): 4.5 days
- Yellow leaf number (Pansy plants [2]; 10 μL L^−1 MCP (12 hours) at 0 hrs, Delta Premium Pure White, 3 days after treatment, Table 22): 1.8
- Yellow leaf number (Pansy plants [2]; 10 μL L^−1 MCP (12 hours) at 0 hrs, Delta Premium Pure White, 7 days after treatment, Table 22): 4.0
- Yellow leaf number (Pansy plants [2]; 10 μL L^−1 MCP (12 hours) at +24 hrs, Delta Premium Pure White, 3 days after treatment, Table 22): 2.2
- Yellow leaf number (Pansy plants [2]; 10 μL L^−1 MCP (12 hours) at +24 hrs, Delta Premium Pure White, 7 days after treatment, Table 22): 4.0
- Yellow leaf number (Pansy plants [2]; 10 μL L^−1 MCP (12 hours) at −24 hrs, Delta Premium Pure White, 3 days after treatment, Table 22): 2.0
- Yellow leaf number (Pansy plants [2]; 10 μL L^−1 MCP (12 hours) at −24 hrs, Delta Premium Pure White, 7 days after treatment, Table 22): 4.0
- Yellow leaf number (Pansy plants [2]; 10 μL L^−1 MCP for 12 hours, Colossus Formula Mix, 3 days after treatment, Table 20): 0.2
- Yellow leaf number (Pansy plants [2]; 10 μL L^−1 MCP for 12 hours, Colossus Formula Mix, 8 days after treatment, Table 20): 1.7
- Yellow leaf number (Pansy plants [2]; 10 μL L^−1 MCP for 24 hours, Delta Premium Pure White, 3 days after treatment, Table 21): 0.0
- Yellow leaf number (Pansy plants [2]; 10 μL L^−1 MCP for 24 hours, Delta Premium Pure White, 8 days after treatment, Table 21): 0.7
- Yellow leaf number (Pansy plants [2]; 10 μL L^−1 MCP, Delta Premium Pure White, 3 days after treatment, Table 23): 3.2
- Yellow leaf number (Pansy plants [2]; 10 μL L^−1 MCP, Delta Premium Pure White, 7 days after treatment, Table 23): 6.7

Further lines, with some results ahead:

- Yellow leaf number (Pansy plants [2]; [5]): 9.2
- Yellow leaf number (Pansy plants [2]; [6]): 11.5
Compound: COC(=O)C=C(C)C=CC1(O)c2ccccc2C(=O)CC1(C)C (mixture of isomers) [PBI-488, tetralone, ester]
- Shelf life (Pansy plants [1]; [3]): 5.3 days
- Shelf life (Pansy plants [1]; [4]): 7.0 days

- Yellow leaf number (Pansy plants [2]; [5]): 10.8
- Yellow leaf number (Pansy plants [2]; [6]): 11.0
Compound: COC(=O)C=C(C)C#CC1(O)c2ccccc2C(=O)CC1(C)C (mixture of isomers) [PBI-702, tetralone, first carbon tail acetylene, ester]
- Shelf life (Pansy plants [1]; [3]): 4.7 days
- Shelf life (Pansy plants [1]; [4]): 7.0 days

- Yellow leaf number (Pansy plants [2]; 3 mg, Delta Premium Pure Golden Yellow, advanced seedling stage (1 month old), drought, 3 d after treatment, Table 4): 8.2
- Yellow leaf number (Pansy plants [2]; 3 mg, Delta Premium Pure Golden Yellow, drought, 3 d after treatment, Table 3): 7.5
- Yellow leaf number (Pansy plants [2]; 30 mg, Delta Premium Pure Golden Yellow, advanced seedling stage (1 month old), drought, 3 d after treatment, Table 4): 8.8
- Yellow leaf number (Pansy plants [2]; 30 mg, Delta Premium Pure Golden Yellow, drought, 3 d after treatment, Table 3): 8.0
Compound: C/C(C#C[C@]1(O)C(C)CC(=O)CC1(C)C)=C/CO (some centres unmarked) [PBI-51]
- Shelf life (Pansy plants [1]; 3 mg, Delta Premium Pure Golden Yellow, advanced seedling stage (1 month old), drought, Table 4): 3.7 days
- Shelf life (Pansy plants [1]; 3 mg, Delta Premium Pure Golden Yellow, drought, Table 3): 5.0 days
- Shelf life (Pansy plants [1]; 30 mg, Delta Premium Pure Golden Yellow, advanced seedling stage (1 month old), drought, Table 4): 3.5 days
- Shelf life (Pansy plants [1]; 30 mg, Delta Premium Pure Golden Yellow, drought, Table 3): 5.0 days

- Yellow leaf number (Pansy plants [2]; [5]): 11.0
- Yellow leaf number (Pansy plants [2]; [6]): 11.2
Compound: C#CC1(C)CC(=O)C=C(C)C1(O)C=CC(C)=CC(=O)O (centres unmarked) [PBI-524, 8′ acetylene-ABA, acid]
- Shelf life (Pansy plants [1]; [3]): 6.5 days
- Shelf life (Pansy plants [1]; [4]): 8.8 days
